# From article PMC5841303, “In silico screening for human norovirus antivirals reveals a novel non-nucleoside inhibitor of the viral polymerase” (Scientific Reports, 2018)
# What was measured:
# [1] = molecular target: human norovirus Sydney 2012 RdRp (Norovirus GII.4 (Norwalk virus, human norovirus), UniProt K4L8Z7); assay: Combinational study of 54 and PPNDS (Compusyn combination index); type: biochemical; conditions: 54 with PPNDS, 4:1 ratio
# Protocol: Despite the minimal activity in the cell culture system, RdRp inhibition by 54 is an important finding in the search of novel norovirus inhibitors. […] PPNDS (0.025–25 µM) and 54 (0.1–100 µM) were examined alone and together in a 1:4 ratio respectively (Fig. 13A), and the average of the combination indices at 50% (1.6), 75% (1.7) and 90% (1.8) inhibition was 1.7.
# (§1) Fluorescent RdRp activity assays were carried out as previously described[14],[62]. Briefly, RdRp activity was quantified by monitoring the formation of double-stranded RNA (dsRNA) from a single stranded homopolymeric template, poly(C) (Sigma Aldrich, St Louis, MO, USA), using the fluorescent dye PicoGreen (Life Technologies, Carlsbad, CA, USA). RdRp assays were performed in 384-well plates, and each reaction mixture contained 400 ng enzyme, 45 µM GTP, 10 ng/µL poly(C) RNA, 2.5 mM MnCl2, 5 mM dithiothreitol, (DTT), 0.01% bovine serum albumin (BSA), and 0.005% Tween 20 in 20 mM Tris-HCl, pH 7.5, with a final reaction volume of 25 µL. The previous published norovirus NNI NIC02 was used as a positive control. RdRps were incubated for 10 mins at 30 °C in the presence of the test compounds or the compound vehicle DMSO (0.5% vol/vol) before addition into the reaction mixture, which was then allowed to run 15 min at 30 °C then terminated with 10 mM EDTA, followed by PicoGreen staining and dsRNA quantitation. GraphPad Prism V6.05 (La Jolla, CA, USA) was used to plot the IC50 values. In cases where fluorescent enhancement was recorded for a compound instead of inhibition, a secondary gel-based polymerase activity assay was used as a counter-screen as described below, to exclude the possibility of RdRp activity enhancement (Supplementary Fig. S1). Primed elongation activity was examined in a gel-based assay as previously described[16],[63] using the RNA template (PE44-NoV, Fig. 4D). Gels were imaged using BioRad (Hercules, CA, U.SA) Geldoc Universal Hood II, running BioRad Image Lab software, V4.1, build 16. Antagonism was calculated using Compusyn software V1.0[59]. 54 and PPNDS (4:1 ratio) were tested alone and together against norovirus Sydney 2012 RdRp.
# MNV = MNV plaque reduction assay in cell culture; type: cell-based, murine norovirus
# Protocol: As mentioned above, the only robust cellular assay available for the evaluation of potential norovirus inhibitors is the closely related MNV assay. […] Consequently, 54 was further assessed to determine the IC50 value against MNV RdRp activity using an in vitro fluorescent assay. […] 54 was then assessed for cytotoxicity against RAW264.7 mouse macrophage cells using a cell viability assay. […] Using the plaque reduction assay, the inhibitory effects of 54 (0.5–50 µM) were examined against MNV plaque formation in cell culture. […] Compound solubility and its cell-membrane permeability properties could be further improved with structure-activity relationship enhancement of the 54 scaffold to facilitate cellular uptake, and therefore to increase antiviral efficacy. Work on this aspect is ongoing, and it will be reported in due course.
# MNV-1 (CW1) culture assays were performed as previously described. Replication was examined using plaque assays[58],[64],[65]. Cytotoxicity was examined using a CellTitre Blue (Promega, Madison, WI, USA) viability assay as described previously.
# norovirus RdRp = assay: Counter-screen gel-shift RdRp assay (primed elongation of PE44-NoV template); type: biochemical, human norovirus; conditions: fixed concentration of 100 µM
# Protocol: In this assay, a 32 nucleotide RNA template (PE44-NoV) is extended to 44 nucleotides in the presence of an active RdRp[16]. […] Inhibition of primed elongation of the PE44-NoV template was examined at a fixed concentration of 100 µM (Fig. 4D). In the absence of inhibition (0.5% DMSO vehicle only) the RNA template was extended to 44 nucleotides (Fig. 4D), evidenced by an upward gel shift and the appearance of the second, higher band.
# as §1
# Q414A norovirus RdRp = molecular target: T1, Q414A norovirus RdRp (Norovirus GII.4 (Norwalk virus, human norovirus), UniProt K4L8Z7, Q1603A); assay: Fluorescent RdRp assay, Q414A mutant RdRp; type: biochemical; conditions: 0.1–100 µM
# T1 sequence (K4L8Z7 1190-1699 Q1603A): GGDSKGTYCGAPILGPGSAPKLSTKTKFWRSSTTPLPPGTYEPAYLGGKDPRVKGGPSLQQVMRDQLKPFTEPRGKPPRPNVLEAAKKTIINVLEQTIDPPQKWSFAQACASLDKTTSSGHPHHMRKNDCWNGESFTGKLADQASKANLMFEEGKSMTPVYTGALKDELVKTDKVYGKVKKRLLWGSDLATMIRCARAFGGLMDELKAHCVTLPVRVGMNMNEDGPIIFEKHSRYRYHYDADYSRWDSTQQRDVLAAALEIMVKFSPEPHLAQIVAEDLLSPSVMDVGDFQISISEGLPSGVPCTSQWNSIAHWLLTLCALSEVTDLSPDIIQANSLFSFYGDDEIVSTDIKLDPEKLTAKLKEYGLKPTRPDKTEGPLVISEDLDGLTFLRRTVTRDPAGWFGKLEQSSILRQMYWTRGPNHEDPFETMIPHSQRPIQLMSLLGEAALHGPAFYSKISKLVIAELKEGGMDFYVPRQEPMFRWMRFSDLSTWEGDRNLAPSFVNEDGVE
# Excerpt: Given the evidence of 54 being a site-B binding NNI, residues Q414 and R419 were mutated to alanine. These residues were previously shown by our research group and others to be critical for human norovirus RdRp site-B binding NNIs, and can create resistance to the drug through their mutagenesis[16],[17],[39]. After the mutant RdRps’ transcriptional activity was confirmed in a fluorescent RdRp assay (Q414A: 54%, R419A: 34% of wild-type activity, respectively), dose-response curves for 54 (0.1–100 µM) were produced to compare the IC50 values between the wild-type RdRp and the two mutant RdRps, Q414A and R419A (Fig. 13B). […]
# Fluorescent RdRp activity assays were carried out as previously described[14],[62]. Briefly, RdRp activity was quantified by monitoring the formation of double-stranded RNA (dsRNA) from a single stranded homopolymeric template, poly(C) (Sigma Aldrich, St Louis, MO, USA), using the fluorescent dye PicoGreen (Life Technologies, Carlsbad, CA, USA). […] RdRps were incubated for 10 mins at 30 °C in the presence of the test compounds or the compound vehicle DMSO (0.5% vol/vol) before addition into the reaction mixture, which was then allowed to run 15 min at 30 °C then terminated with 10 mM EDTA, followed by PicoGreen staining and dsRNA quantitation. […] Antagonism was calculated using Compusyn software V1.0[59]. […]
smiles,measurement,setting,value
O=C1NN(c2ccccc2)C(=O)/C1=C/c1ccc(-c2ccc(S(=O)(=O)Nc3ccccc3)cc2)o1 [Compound 54],combination index at 50% inhibition,[1],1.6
same,combination index at 75% inhibition,[1],1.7
same,combination index at 90% inhibition,[1],1.8
same,average combination index,"[1]; average over 50%, 75% and 90% inhibition",1.7
same,cytotoxicity seen in plaque assay,"MNV; 50 µM, RAW264.7 cells",RAW264.7 cells thinning
same,EC50,"MNV; 0.5–50 µM, read-out: EC50 against MNV in cell culture (plaque reduction)",> 50 µM
same,effect on plaque numbers,MNV; up to 25 µM,no appreciable effect
same,inhibition of primed elongation activity (gel-shift),norovirus RdRp,near complete abolishment of norovirus RdRp activity
same,IC50,Q414A norovirus RdRp,7.8 µM
